Five molecules from patent publication EP0436902B1, “5-Fluorouracil derivatives” (OTSUKA PHARMACEUTICAL CO., LTD., priority 1984, dated 1986) can be followed below.

The assay relates to Sarcoma-180. Description: Pharmacological Test I: antitumor effect on subcutaneously transplanted Sarcoma-180 solid tumor in mice. To be noted: Mus musculus, 240 h; ICR mice, Sarcoma-180 2 X 10⁷ cells subcutaneously; oral, once a day for 7 consecutive days, suspended in 5 % gum arabic; tumor weight on the 10th day; from dose-response curve; read-out: ED₅₀ (50 % tumor inhibition dose in which T/C is 0.5). In kind it is in vivo. The procedure:
Isophthaloyl chloride (1.50 g) and 6.0 ml of triethylamine were added to a solution of 1.00 g of 5-fluoro-1-(2-tetrahydrofuranyl)uracil in 50 ml of dioxane. The mixture was refluxed for 1.5 hours. The resulting precipitate was removed by filtration and the filtrate was concentrated. To the concentrate was added 50 ml of methylene chloride and thereto added was 10 ml of a solution of 1.50 g of 2,6-bis(trimethylsilyloxy)pyridine in methylene chloride. The mixture was left to stand at room temperature for 3 hours. The solvent was distilled off and the residue was subjected to silica gel column chromatography using as an eluent 2 % methanol-chloroform, giving 0.30 g of the title compound in a yield of 14 %. ¹H-NMR(CDCl₃)δ: 8.66-8.19 (3H, m, [drawing 76] 7.83-7.62 (2H, m, [drawing 77] and C₄-H of the pyridine ring) 7.52 (1H, d, J = 6Hz, C₆-H) 6.77 and 6.68 (each 1H, d, J = 8Hz, C₃·₅-H of the pyridine ring) 5.99-5.92 (1H, m, C1'-H) 4.30-3.88 (2H, m, C4'-H) 2.44-1.89 (4H, m, C2'·3'-H) Pharmacological Test I • (a) Sarcoma-180 subcultured in an ascites of ICR mice was diluted with a physiological saline solution and subcutaneously transplanted into the backs of ICR mice in an amount of 2 X 10⁷ cells each. Twenty-four hours after the transplantation, a test compound suspended in a 5 % solution of gum arabic was orally administered to each of mice once a day for 7 consecutive days.
The solid tumor was extirpated from under the dorsal skin of mice on the 10th day after the transplantation to measure the weight of the tumor. There was determined the ratio (T/C) of the weight or tumor (T) cut out from the group of mice treated with the test compound to the weight of tumor (C) from the group of mice not treated therewith. The 50 % tumor inhibition dose (ED₅₀ value) in which T/C is 0.5 was determined from the dose-response curve of dosage and the ratio (T/C).
Table 1 below lists the results together with the value obtained by using as a control an anti-cancer preparation containing 5-fluoro-1-(2-tetrahydrofuranyl)uracil and uracil in a ratio by weight of 1 to 4.
In the case of `O=C(Oc1cc[nH]c(=O)c1)c1cccc(C(=O)n2c(=O)c(F)cn(C3CCCO3)c2=O)c1` (centres unmarked) [Example 1, 3-[3-(1,2-dihydro-2-oxo-4-pyridyloxycarbonyl)benzoyl]-5-fluoro-1-(2-tetrahydrofuranyl)uracil], the ED50 was 10 mg/kg.

As to `O=C(Oc1cc(OC(=O)c2cccc(C(=O)n3c(=O)c(F)cn(C4CCCO4)c3=O)c2)c(Cl)cn1)c1ccccc1` (centres unmarked) [Example 3, 3-[3-(2-benzoyloxy-5-chloro-4-pyridyloxycarbonyl)benzoyl]-5-fluoro-1-(2-tetrahydrofuranyl)uracil], the ED50 was 25 mg/kg. `O=C(Oc1cc(OC(=O)c2ccccc2)c(Cl)cn1)c1cccc(C(=O)n2c(=O)c(F)cn(C3CCCO3)c2=O)c1` (centres unmarked) [Example 4, 3-[3-(4-benzoyloxy-5-chloro-2-pyridyloxycarbonyl)benzoyl]-5-fluoro-1-(2-tetrahydrofuranyl)uracil]: the ED50 is 18 mg/kg. Turning to `O=C(Oc1cc(=O)n(C2CCCO2)cc1Cl)c1cccc(C(=O)n2c(=O)c(F)cn(C3CCCO3)c2=O)c1` (centres unmarked) [Example 10, 3-[3-[5-chloro-1,2-dihydro-2-oxo-1-(2-tetrahydrofuranyl)-4-pyridyloxycarbonyl]benzoyl]-5-fluoro-1-(2-tetrahydrofuranyl)uracil], the ED50 was determined as 28 mg/kg. For `N#Cc1ccc(OC(=O)c2ccco2)nc1OC(=O)c1cccc(C(=O)n2c(=O)c(F)cn(C3CCCO3)c2=O)c1` (centres unmarked) [Example 15, 3-[3-[3-cyano-6-(2-furoyloxy)-2-pyridyloxycarbonyl]benzoyl]-5-fluoro-1-(2-tetrahydrofuranyl)uracil] the value was 18 mg/kg.
